Values of other authors, collected in patent publication US20240174620A1, “SOLID FORMS OF SAFLUFENACIL-SODIUM AND SAFLUFENACIL-POTASSIUM, PROCESS OF PREPARATION AND USE THEREOF” (ADAMA AGAN LTD., priority 2021, published 2024).
Read-outs that look alike come from different tables or passages of the source.

How the values were obtained:
[1] = not given; remark: listed apart in the source

## CC(C)N(C)S(=O)(=O)NC(=O)c1cc(-n2c(=O)cc(C(F)(F)F)n(C)c2=O)c(F)cc1Cl [Saflufenacil]
1-octanol, 20° C.
  solubility in 1-octanol: < 0.01 g/100 mL
acetone, 20° C.
  solubility in acetone: 27.5 g/100 mL
acetonitrile, 20° C.
  solubility in acetonitrile: 19.4 g/100 mL
Ethyl acetate, 20° C.
  solubility in ethyl acetate: 6.55 g/100 mL
Isopropyl alcohol, 20° C.
  solubility in isopropyl alcohol: 0.25 g/100 mL
methanol, 20° C.
  solubility in methanol: 2.98 g/100 mL
n-heptane, 20° C.
  solubility in n-heptane: < 0.005 g/100 mL
tetrahydrofurane, 20° C.
  solubility in tetrahydrofurane: 36.2 g/100 mL
toluene, 20° C.
  solubility in toluene: 0.23 g/100 mL
pH 5, 20° C.
  solubility in water: 0.0025 g/100 mL
pH 7, 20° C.
  solubility in water: 0.21 g/100 mL
[1]
  pKa: 4.41
